Measurements: patent US10435414B2, “Tricyclic PI3K inhibitor compounds and methods of use” (Genentech, Inc., priority 2015, dated 2019)

Biological target: PI3Kα (alpha) (Homo sapiens (Human), UniProt P42336)
Assay: p110α (alpha) PI3K binding assay (ADP-Glo lipid kinase reaction, Ki by Morrison equation)
Assay type: biochemical
Details: PI3K alpha 0.2 nM, ATP 40 μM, PIP2:3PS 50 μM, 120 min, room temperature; read-out: PI3Kα-(alpha) ATP (Ki) micromolar
Method: PI3K Binding assays are intended for determining the biochemical potency of small molecule PI3K inhibitors. The PI3K lipid kinase reaction is performed in the presence of PIP2:3PS lipid substrate (Promega #V1792) and ATP. Following the termination if the kinase reaction, turnover of ATP to ADP by the phosphorylation of the lipid substrate is detected using the Promega ADP-Glo™ (Promega #V1792) assay. Reactions are carried out using the following conditions:
After 120 minutes of reaction time, the kinase reaction is terminated. Any ATP remaining after the reaction is depleted, leaving only ADP. Then the Kinase Detection Reagent is added to convert ADP to ATP, which is used in a coupled luciferin/luciferase reaction. The luminescent output is measured and is correlated with kinase activity.
All reactions are carried out at room temperature. […] The reaction is started by the addition of 2 μl ATP/MgCl2. The kinase reaction buffer contains 50 mM HEPES, 50 mM NaCl, 3 mM MgCl2, 0.01% BSA, 1% DMSO, and enzyme and substrate concentrations as indicated in the above table. The reaction is stopped by the addition of 10 μL ADP-Glo reagent. Plates are read in a Perkin Elmer Envision system using luminescence mode. 10 point dose response curves are generated for each test compound. Ki values for each compound are determined using the Morrison Equation.

Sequence of PI3Kα (alpha) (P42336 whole entry): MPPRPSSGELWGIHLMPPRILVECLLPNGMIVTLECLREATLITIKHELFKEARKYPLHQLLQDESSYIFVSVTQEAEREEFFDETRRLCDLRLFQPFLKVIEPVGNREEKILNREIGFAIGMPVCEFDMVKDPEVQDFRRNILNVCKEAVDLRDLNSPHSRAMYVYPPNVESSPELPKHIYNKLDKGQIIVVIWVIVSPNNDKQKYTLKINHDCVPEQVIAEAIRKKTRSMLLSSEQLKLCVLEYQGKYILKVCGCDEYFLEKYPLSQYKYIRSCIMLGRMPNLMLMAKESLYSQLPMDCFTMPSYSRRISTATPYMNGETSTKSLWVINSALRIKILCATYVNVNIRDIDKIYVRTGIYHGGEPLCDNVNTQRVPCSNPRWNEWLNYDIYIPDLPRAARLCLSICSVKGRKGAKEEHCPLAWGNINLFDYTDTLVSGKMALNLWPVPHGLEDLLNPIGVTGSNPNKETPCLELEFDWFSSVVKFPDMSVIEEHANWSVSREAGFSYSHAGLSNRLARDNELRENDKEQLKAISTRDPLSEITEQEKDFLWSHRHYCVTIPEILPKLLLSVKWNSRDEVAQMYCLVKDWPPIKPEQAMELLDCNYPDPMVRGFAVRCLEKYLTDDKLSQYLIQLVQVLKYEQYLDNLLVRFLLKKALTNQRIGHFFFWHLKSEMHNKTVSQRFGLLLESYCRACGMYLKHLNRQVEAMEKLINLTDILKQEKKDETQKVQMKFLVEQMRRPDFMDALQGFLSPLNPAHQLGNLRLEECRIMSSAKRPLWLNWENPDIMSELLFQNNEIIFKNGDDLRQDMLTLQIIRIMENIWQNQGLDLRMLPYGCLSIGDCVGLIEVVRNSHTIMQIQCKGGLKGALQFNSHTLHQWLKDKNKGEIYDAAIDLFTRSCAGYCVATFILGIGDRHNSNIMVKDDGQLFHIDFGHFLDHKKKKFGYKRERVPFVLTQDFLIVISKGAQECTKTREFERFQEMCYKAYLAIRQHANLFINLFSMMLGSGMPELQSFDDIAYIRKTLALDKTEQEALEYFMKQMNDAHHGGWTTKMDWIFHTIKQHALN
Sequence of PI3Kα (alpha) (P27986 whole entry partner): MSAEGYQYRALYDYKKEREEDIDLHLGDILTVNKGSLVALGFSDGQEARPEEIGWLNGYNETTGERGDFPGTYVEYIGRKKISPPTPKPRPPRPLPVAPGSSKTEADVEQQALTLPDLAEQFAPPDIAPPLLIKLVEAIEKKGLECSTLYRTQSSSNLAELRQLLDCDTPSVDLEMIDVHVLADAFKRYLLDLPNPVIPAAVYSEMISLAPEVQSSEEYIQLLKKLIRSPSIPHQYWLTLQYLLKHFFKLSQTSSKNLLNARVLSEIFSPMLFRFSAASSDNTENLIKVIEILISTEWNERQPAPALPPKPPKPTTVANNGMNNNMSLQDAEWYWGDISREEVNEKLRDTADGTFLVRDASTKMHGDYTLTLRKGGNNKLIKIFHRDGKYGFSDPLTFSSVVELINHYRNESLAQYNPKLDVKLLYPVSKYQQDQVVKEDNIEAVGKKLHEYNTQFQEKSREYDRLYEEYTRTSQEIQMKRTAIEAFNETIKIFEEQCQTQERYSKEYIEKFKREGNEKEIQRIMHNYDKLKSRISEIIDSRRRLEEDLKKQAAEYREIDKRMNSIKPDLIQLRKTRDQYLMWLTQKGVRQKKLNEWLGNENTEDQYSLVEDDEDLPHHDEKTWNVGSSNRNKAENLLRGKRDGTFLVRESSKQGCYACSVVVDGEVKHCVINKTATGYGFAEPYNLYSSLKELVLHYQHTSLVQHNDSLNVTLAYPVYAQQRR

Row | Ki [nM] | Structure (SMILES)
1 | 0.104 | NC(=O)[C@H](Oc1cc2c3c(c1)nc(-c1ccc4oc(N)nc4c1)n3CCCCO2)C1CC1 (single isomer, unassigned) [Example 283]
2 | < 0.02 | NC(=O)[C@@H](Oc1cc2c3c(c1)nc(-c1ccc4oc(N)nc4c1)n3CCCCO2)C1CC1 (single isomer, unassigned) [Example 284]
3 | 0.1 | NC(=O)[C@H](Oc1cc2c3c(c1)nc(-c1cc(F)c4oc(N)nc4c1)n3CCCCO2)C1CC1 (single isomer, unassigned) [Example 288]
4 | < 0.02 | NC(=O)[C@@H](Oc1cc2c3c(c1)nc(-c1cc(F)c4oc(N)nc4c1)n3CCCCO2)C1CC1 (single isomer, unassigned) [Example 289]
